Test results: PMC9646789, “Discovery of potential natural dihydroorotate dehydrogenase inhibitors and their synergism with brequinar via integrated molecular docking, dynamic simulations and in vitro approach” (Scientific Reports, 2022)

Biological target: T1, human dihydroorotate dehydrogenase (hDHODH) (Homo sapiens, UniProt Q02127)
T1 construct: gene DHODH
Test: biochemical

T1 sequence (Q02127 whole entry): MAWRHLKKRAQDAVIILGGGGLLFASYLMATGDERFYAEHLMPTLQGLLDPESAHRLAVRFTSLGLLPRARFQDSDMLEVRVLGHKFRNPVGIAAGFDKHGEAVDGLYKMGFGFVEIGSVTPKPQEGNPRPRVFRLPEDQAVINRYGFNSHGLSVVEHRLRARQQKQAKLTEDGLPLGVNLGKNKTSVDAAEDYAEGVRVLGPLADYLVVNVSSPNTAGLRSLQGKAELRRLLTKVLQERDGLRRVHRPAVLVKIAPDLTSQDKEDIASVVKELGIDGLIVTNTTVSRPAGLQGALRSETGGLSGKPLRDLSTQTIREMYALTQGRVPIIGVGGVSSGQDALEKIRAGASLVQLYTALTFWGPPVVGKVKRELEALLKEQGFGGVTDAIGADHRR

| Structure (SMILES) | IC50 |
| --- | --- |
| COc1cc(C2Oc3cc([C@H]4Oc5cc(O)cc(O)c5C(=O)[C@@H]4O)ccc3OC2CO)ccc1O (some centres unmarked) [Silibinin] | 121 nM |
| COc1cc([C@H]2Oc3c(O)cc([C@H]4Oc5cc(O)cc(O)c5C(=O)[C@@H]4O)cc3[C@@H]2CO)ccc1O [Silychristin B] | 166 nM |
